# According to patent publication US6649654B1, “Methods for identifying and using IKK inhibitors” (The Regents of the University of California, priority 1999, dated 2003):
# Entries after “also recorded” stand apart in the source; their conditions may differ.
# Columns and labels:
# IKK = assay: NIK-induced endogenous IKK activity in transfected COS cells; format: cell-based; conditions: PGA1 added 10 min or 18 h after transfection
# Experimental: Cells used in the experiments described herein were cultured in either RPMI 1640 (Jurkat cells) or DMEM (HeLa and COS cells), supplemented with 10% FBS and antibiotics. Cells were stimulated with either 25 ng/ml TPA, 20 ng/ml recombinant TNFα, or 10 ng/ml interleukin 1β (Sigma). PGA1, 15dPGJ2, T×B2, LTB4, AA and other PGs (Cayman) dissolved in ethanol were used as well, as known in the art (See e.g., Rossi et al., 94:746-750 [1997]). Controls received equal amounts of ethanol. Transfections were performed using Lipofectamine Plus (GIBCO) for HeLa and COS cells and DEAE-dextran (Sigma) for Jurkat cells. Xpress-tagged NIK, Xpress-tagged MEKK1, HA-tagged IKKα, and HA-tagged IKKβ were also used (See e.g., Zandi et al., Science 281:1360-1363 [1998]; and Delhase et al., Science 284:309-313 [1999]). COX2 and cPLA2 expression vectors were obtained from Dr. L. Feng (See also, Hirose et al., J. Am. Soc. Nephrol., 9:408-416 [1998]). PGD synthase was cloned from HT29 colon carcinoma cell line cDNA by PCR and subcloned into a pCDNA3 vector. […]
# Cell lysates were incubated with anti-IKKα (Pharmingen), anti-HA (12CA5; Pharmingen), anti-JNK1 (333.8; Pharmingen), or anti-p38 (New England Biolabs) for 2 hours. […] Endogenous IKK, HA-tagged IKKα, endogenous JNK1, and p38 activities were determined with GST-1κBα(1-54), GST-c-Jun(1-79), and GST-ATF2 as substrates.
# wild-type IKKβ = assay: 2XNFκB-LUC reporter in HeLa cells with NIK and wild-type IKKβ; format: cell-based; conditions: luciferase at 24 hours, FIG. 6E
# Experimental: Recombinant IKKβ(C179A) was also resistant to concentrations of 15dPGJ2 that were inhibitory to wild-type IKKβ (as shown in FIG. 6D), and also to PGA1. An NF-κB dependent transcriptional reporter (2XNFκB-LUC) was preincubated with expression vector encoding either wild-type IKKβ or IKKβ(C179A). A NIK expression vector was included to ensure maximal IKK activation. […] FIG. 6E provides the results for HeLa cells transiently transfected with a 2×NF-κB-LUC reporter, a NIK expression vector and expression vectors for wild type IKKβ or IKKβ(C179A). At 3 hours post-transfection, cells were treated with 15dPGJ2 and at 24 hours, the luciferase activities were determined for duplicate samples. In each case, the maximal activity achieved in the absence of inhibitor was given an arbitrary value of 100% and the other values were calculated relative to this one.
# JNK1 = target: T1, JNK1 (Homo sapiens, UniProt P45983); assay: In vitro JNK1 kinase activity; format: biochemical; conditions: in vitro incubation with up to 60 μM
# T1 construct: Endogenous IKK, HA-tagged IKKα, endogenous JNK1, and p38 activities were determined; endogenous in cells
# T1 sequence (P45983 whole entry): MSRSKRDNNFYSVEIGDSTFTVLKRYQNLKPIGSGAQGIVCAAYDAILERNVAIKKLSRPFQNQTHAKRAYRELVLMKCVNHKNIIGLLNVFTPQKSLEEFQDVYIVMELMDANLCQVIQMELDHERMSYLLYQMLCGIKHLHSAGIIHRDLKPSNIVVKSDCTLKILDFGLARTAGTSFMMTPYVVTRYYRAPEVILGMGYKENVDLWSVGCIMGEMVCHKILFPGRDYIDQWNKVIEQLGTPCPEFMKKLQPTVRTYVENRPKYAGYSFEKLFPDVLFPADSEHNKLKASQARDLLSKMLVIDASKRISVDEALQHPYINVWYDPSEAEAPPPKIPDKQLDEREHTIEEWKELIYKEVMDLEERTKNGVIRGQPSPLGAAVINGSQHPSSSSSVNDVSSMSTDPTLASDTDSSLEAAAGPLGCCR
# Experimental: (§1) Cell lysates were incubated with anti-IKKα (Pharmingen), anti-HA (12CA5; Pharmingen), anti-JNK1 (333.8; Pharmingen), or anti-p38 (New England Biolabs) for 2 hours. Then, 15 μl protein A-Sepharose (Sigma) were added and the mixture was allowed to incubate for 1 hour. After extensive washing, kinase assays were performed as known in the art (See e.g., DiDonato et al., Nature 388:548-554 [1997]). Endogenous IKK, HA-tagged IKKα, endogenous JNK1, and p38 activities were determined with GST-1κBα(1-54), GST-c-Jun(1-79), and GST-ATF2 as substrates.
# (§2) Endogenous IKK was immunoprecipitated from TNFα-stimulated HeLa cells and the kinase activity determined in the presence of different concentrations of PGA1 (the results of which are shown in FIG. 2B) or 15dPGJ2 (the results of which are shown in FIG. 2C).
# [1] = target: T2, peroxisome proliferator-activated receptor-γ (PPAR-γ) (Homo sapiens, UniProt P37231); conditions: Ricote et al.; Jiang et al.; cited from earlier work
# T2 sequence (P37231 1-505): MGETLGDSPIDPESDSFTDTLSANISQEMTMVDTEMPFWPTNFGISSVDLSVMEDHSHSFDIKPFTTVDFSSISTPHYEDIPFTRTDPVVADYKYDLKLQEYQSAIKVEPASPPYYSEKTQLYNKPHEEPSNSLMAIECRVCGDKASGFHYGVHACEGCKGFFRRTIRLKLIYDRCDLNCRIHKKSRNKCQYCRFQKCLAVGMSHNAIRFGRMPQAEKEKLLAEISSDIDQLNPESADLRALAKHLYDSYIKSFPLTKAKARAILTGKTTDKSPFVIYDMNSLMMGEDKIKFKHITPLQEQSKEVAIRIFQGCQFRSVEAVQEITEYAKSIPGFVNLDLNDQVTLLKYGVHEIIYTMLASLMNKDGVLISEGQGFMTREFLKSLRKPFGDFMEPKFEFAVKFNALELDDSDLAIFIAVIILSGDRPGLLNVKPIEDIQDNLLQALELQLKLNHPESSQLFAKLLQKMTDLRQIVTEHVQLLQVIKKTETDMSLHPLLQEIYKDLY
# p38 = p38 (Homo sapiens, UniProt Q16539); assay: In vitro p38 kinase activity; format: biochemical; design: Endogenous IKK, HA-tagged IKKα, endogenous JNK1, and p38 activities were determined; endogenous in cells; conditions: in vitro incubation with up to 60 μM
# p38, sequence (Q16539 whole entry): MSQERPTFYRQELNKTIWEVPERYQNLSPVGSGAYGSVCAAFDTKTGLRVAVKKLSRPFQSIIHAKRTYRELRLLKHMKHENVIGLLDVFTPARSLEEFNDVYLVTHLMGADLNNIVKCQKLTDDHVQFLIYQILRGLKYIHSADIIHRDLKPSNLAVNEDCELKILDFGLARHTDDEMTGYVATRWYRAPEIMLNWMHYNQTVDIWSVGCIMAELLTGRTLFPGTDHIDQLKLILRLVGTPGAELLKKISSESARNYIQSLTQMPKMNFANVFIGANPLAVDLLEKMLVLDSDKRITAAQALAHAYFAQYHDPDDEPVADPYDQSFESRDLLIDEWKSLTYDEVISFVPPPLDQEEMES
# Experimental: as §1, §2
# [2] = system: carrageenin-induced pleurisy; conditions: rats, endogenous and exogenous 15dPGJ2; Gilroy et al.; cited from earlier work
SMILES,effect on NIK-induced activation of endogenous IKK activity (IKK),sensitivity of NF-κB transcriptional activity through wild-type IKKβ (wild-type IKKβ),inhibition of JNK1 activity in vitro (JNK1),activation of PPAR-γ [1],inhibition of p38 activity in vitro (p38),anti-inflammatory effect [2]
"CCCCC[C@H](O)/C=C/[C@H]1C=CC(=O)C1CCCCCCC(=O)O (stereo partly drawn) [PGA1, prostaglandin A1]",inhibited; also recorded: prevents,–,–,–,–,–
"CCCCC/C=C/C=C1/C(=O)C=C[C@@H]1C/C=C\CCCC(=O)O [15dPGJ2, 15-deoxy-Δ^12-14-PGJ2]",–,highly sensitive,No significant inhibition,activate,No significant inhibition,anti-inflammatory effect
